pIC50: −log10 of the molar value. Like-named read-outs stand apart in the source and are kept apart here.
Assays:
[1] = target: T1, AKT1 WT (Homo sapiens, UniProt P31749); experiment: Live cell AKT1 WT target engagement by NanoBRET competitive probe displacement in HEK293 cells; assay type: binding; details: 2 h at 37° C.; for pIC50: read-out: AKT1 WT IC50
T1 construct: expressed in transfected cells; host or cells: HEK293
Procedure: (§1) Determining live cell AKT1 E17K, AKT1 WT, and AKT2 target engagement by NanoBRET competitive probe displacement. […] Briefly, HEK293 cells were transfected with plasmids encoding kinase-NanoLuciferase fusion proteins overnight. Cells were then treated with serial dilutions of compound and an ˜EC50 concentration of fluorescently-tagged ATP-competitive tracer (Promega). After incubation for 2 h at 37° C., luciferase substrate and extracellular luciferase inhibitor were added to all wells, and luminescent intensity at 460 nm and 600 nm were measured on a multimode plate-reader. The ratio of E600/E460 was calculated to give the tracer engagement signal (BRET). IC50 values were calculated by fitting BRET values to a log(inhibitor) vs. response Hill equation.

[2] = target: T2, AKT2 (Homo sapiens, UniProt P31751); experiment: Live cell AKT2 target engagement by NanoBRET competitive probe displacement in HEK293 cells; assay type: binding; details: 2 h at 37° C.; for pIC50: read-out: AKT2 IC50
T2 construct: expressed in transfected cells; host or cells: HEK293
T2 sequence (P31751 whole entry): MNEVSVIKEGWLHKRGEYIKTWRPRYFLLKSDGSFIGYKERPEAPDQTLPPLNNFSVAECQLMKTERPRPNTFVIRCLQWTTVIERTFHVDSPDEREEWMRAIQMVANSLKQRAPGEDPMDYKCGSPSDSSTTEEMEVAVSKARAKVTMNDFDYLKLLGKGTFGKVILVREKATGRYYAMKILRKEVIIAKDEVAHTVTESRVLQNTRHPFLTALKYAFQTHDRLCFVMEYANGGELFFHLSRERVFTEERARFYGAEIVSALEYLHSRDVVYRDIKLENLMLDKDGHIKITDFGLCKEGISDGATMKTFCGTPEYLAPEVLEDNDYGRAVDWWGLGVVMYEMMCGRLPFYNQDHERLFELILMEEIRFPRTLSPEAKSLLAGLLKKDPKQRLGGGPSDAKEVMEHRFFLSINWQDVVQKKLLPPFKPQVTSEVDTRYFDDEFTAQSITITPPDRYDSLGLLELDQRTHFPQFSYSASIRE
Procedure: as §1

[3] = NanoBRET competitive probe displacement, live HEK293 cells
[4] = NanoBRET live cell target engagement, HEK293 cells

T1 sequence (P31749 whole entry): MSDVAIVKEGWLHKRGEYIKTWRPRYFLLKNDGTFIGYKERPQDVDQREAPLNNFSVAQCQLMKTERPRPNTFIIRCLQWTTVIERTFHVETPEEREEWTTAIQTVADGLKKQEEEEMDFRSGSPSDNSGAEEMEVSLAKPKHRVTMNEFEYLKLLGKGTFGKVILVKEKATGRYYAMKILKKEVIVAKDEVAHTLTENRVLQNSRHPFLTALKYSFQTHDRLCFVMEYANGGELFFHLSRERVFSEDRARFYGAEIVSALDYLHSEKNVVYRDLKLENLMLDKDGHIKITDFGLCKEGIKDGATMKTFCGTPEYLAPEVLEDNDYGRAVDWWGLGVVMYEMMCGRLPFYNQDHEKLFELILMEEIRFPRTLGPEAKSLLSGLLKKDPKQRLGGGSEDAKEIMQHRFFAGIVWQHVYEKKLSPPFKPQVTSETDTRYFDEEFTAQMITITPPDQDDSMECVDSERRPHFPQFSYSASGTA

Row | SMILES | pIC50 [1, 3] | pIC50 [2, 3] | pIC50 [1, 4] | pIC50 [2, 4] | other results
1 | Nc1ncccc1-c1nc2ccc(-n3cccn3)nc2n1-c1ccc2c(c1)CC[C@H]2NC1CCN(C(=O)C2CC2)CC1 [Compound 500] | 7.09 | < 5.00 | – | – | –
2 | Cc1cc(C(F)F)ncc1C(=O)N[C@H]1CCc2cc(-n3c(-c4cccnc4N)nc4ccc(-n5nccn5)nc43)ccc21 [Compound 397] | 7.78 | 5.84 | – | – | –
3 | Cn1ccc(N2CCC(N[C@H]3CCc4cc(-n5c(-c6cccnc6N)nc6ccc(-n7ccc(C8CCOCC8)n7)nc65)ccc43)CC2)n1 [Compound 549] | 7.56 | 6.14 | – | – | –
4 | Nc1ncccc1-c1nc2ccc(-n3cccn3)nc2n1-c1ccc2c(c1)CC[C@@H]2n1cc(-c2ccccc2)nn1 [Compound 155, (S)-3-(3-(1-(4-phenyl-1H-1,2,3-triazol-1-yl)-2,3-dihydro-1H-inden-5-yl)-5-(1H-pyrazol-1-yl)-3H-imidazo[4,5-b]pyridin-2-yl)pyridin-2-amine] | – | – | – | – | IC50 ([1]; AKT1 WT IC50 (nM), NanoBRET live cell target engagement, HEK293 cells): 16.5 nM; IC50 ([2]; AKT2 IC50 (nM), NanoBRET live cell target engagement, HEK293 cells): 197 nM
5 | Nc1ncccc1-c1nc2ccc(-n3cccn3)nc2n1-c1ccc2c(c1)CC[C@@H]2n1cc(C2CNC2)nn1 [Compound 250] | – | – | < 6.00 | < 5.00 | –
6 | Nc1ncccc1-c1nc2ccc(-n3cccn3)nc2n1-c1ccc2c(c1)CC[C@@H]2N(C1CC1)C1CCN(C(=O)C2CC2)CC1 [Compound 557] | 7.80 | 5.75 | – | – | –
7 | Nc1ncccc1-c1nc2ccc(-n3nccn3)nc2n1-c1ccc2c(c1)CC[C@@H]2n1cc(C2CC2)nn1 [Compound 352] | – | – | 6.85 | 5.37 | –
8 | Nc1ncccc1-c1nc2ccc(-n3cccn3)nc2n1-c1ccc2c(c1)CC[C@@H]2NC1CCC2(CC1)CN(c1ccccn1)C2 [Compound 450] | 6.70 | 5.35 | – | – | –
9 | Nc1ncccc1-c1nc2ccc(-c3ccn(C4CCOCC4)n3)nc2n1-c1ccc2c(c1)CC[C@@H]2NC1CCN(C(=O)C2CC2)CC1 [Compound 555] | 7.19 | 5.80 | – | – | –
10 | Nc1ncccc1-c1nc2ccc(-n3ccc(N4CCC4)n3)nc2n1-c1ccc2c(c1)CC[C@@H]2NC1CCN(C(=O)C2CC2)CC1 [Compound 562] | 8.01 | 6.37 | – | – | –
11 | Cc1ccc2nc(-c3cccnc3N)n(-c3ccc4c(c3)CC[C@@H]4NC(=O)c3ccc(C(F)F)nc3)c2n1 [Compound 146] | – | – | 6.29 | < 5.00 | –
12 | Nc1ncccc1-c1nc2ccc(C#CC3COC3)nc2n1-c1ccc2c(c1)CC[C@@H]2NC(=O)c1ccc(C(F)F)nc1 [Compound 408] | 7.04 | 5.64 | – | – | –
13 | Cc1ccc(C(=O)N[C@H]2CCc3cc(-n4c(-c5cccnc5N)nc5ccc(-n6ncnc6C6CC6)nc54)ccc32)cn1 [Compound 420] | 6.47 | 5.51 | – | – | –
14 | CCC#Cc1ccc2nc(-c3cccnc3N)n(-c3ccc4c(c3)CC[C@@H]4NC(=O)c3ccc(C(F)F)nc3)c2n1 [Compound 412] | 7.58 | 6.16 | – | – | –
15 | Cc1ccc(C(=O)N[C@H]2CCc3cc(-n4c(-c5cccnc5N)nc5ccc(-c6ncc(C)s6)nc54)ccc32)cn1 [Compound 314] | – | – | 7.98 | 7.15 | –
16 | Cc1ccc(C(=O)N[C@H]2CCc3cc(-n4c(-c5cccnc5N)nc5ccc(-n6cnc(C7CC7)n6)nc54)ccc32)cn1 [Compound 419] | 7.44 | 6.27 | – | – | –
17 | CN(C)[C@H]1CCc2cc(-n3c(-c4cccnc4N)nc4ccc(-n5cccn5)nc43)ccc21 [Compound 340] | – | – | 7.42 | 6.00 | –
18 | Nc1ncccc1-c1nc2ccc(C#C[C@H]3CCO3)nc2n1-c1ccc2c(c1)CC[C@@H]2NC(=O)c1ccc(C(F)F)nc1 [Compound 453] | 7.55 | 5.42 | – | – | –
19 | Cc1ccc(C(=O)N[C@H]2CCc3cc(-n4c(-c5cccnc5N)nc5ccc(-c6ccn(C(F)F)n6)nc54)ccc32)cn1 [Compound 73] | – | – | 8.04 | 7.30 | –
20 | Cc1coc(-c2ccc3nc(-c4cccnc4N)n(-c4ccc5c(c4)CC[C@@H]5NC(=O)c4nccnc4C)c3n2)n1 [Compound 244] | – | – | 6.66 | < 5.00 | –
21 | C#Cc1cc(-n2nccn2)nc2c1nc(-c1cccnc1N)n2-c1ccc2c(c1)CC[C@@H]2NC(=O)c1ccc(C)nc1 [Compound 587] | 6.94 | 6.00 | – | – | –
22 | Nc1ncccc1-c1nc2ccc(C#CC3CCCC3)nc2n1-c1ccc2c(c1)CC[C@@H]2NC(=O)c1ccc(C(F)F)nc1 [Compound 460] | 7.47 | 5.21 | – | – | –
23 | Nc1ncccc1-c1nc2ccc(-n3cccn3)nc2n1-c1ccc2c(c1)CC[C@@H]2NC1CC2(CCCN(c3ccccn3)C2)C1 (stereo partly shown) [Compound 467] | 6.45 | 5.45 | – | – | –
24 | Nc1ncccc1-c1nc2ccc(-n3ccc(OC4COC4)n3)nc2n1-c1ccc2c(c1)CC[C@@H]2NC1CCN(C(=O)C2CC2)CC1 [Compound 567] | 7.95 | 6.34 | – | – | –
25 | Nc1ncccc1-c1nc2ccc(-n3cccn3)nc2n1-c1ccc2c(c1)CC(F)[C@@H]2NC1CCc2cnccc21 (stereo partly shown) [Compound 481] | 7.86 | 6.56 | – | – | –
26 | Nc1ncccc1-c1nc2ccc(-n3ccc(C4COC4)n3)nc2n1-c1ccc2c(c1)CC[C@@H]2NC1CCN(C(=O)C2CC2)CC1 [Compound 597] | 7.18 | 5.42 | – | – | –

Further lines, with some results ahead:

Row | pIC50 [1, 3] | pIC50 [2, 3] | pIC50 [1, 4] | pIC50 [2, 4] | SMILES | other results
27 | – | – | 7.98 | 7.00 | COCCOc1cc(C(=O)N[C@H]2CCc3cc(-n4c(-c5cccnc5N)nc5ccc(-n6cccn6)nc54)ccc32)ccn1 [Compound 203] | –
28 | – | – | 8.28 | 7.13 | CNC(=O)c1ccc(C(=O)N[C@H]2CCc3cc(-n4c(-c5cccnc5N)nc5ccc(-n6cccn6)nc54)ccc32)cc1 [Compound 256] | –
29 | – | – | 8.39 | 7.80 | COc1ccc(C(=O)N[C@H]2CCc3cc(-n4c(-c5cccnc5N)nc5ccc(-n6cccn6)nc54)ccc32)cc1F [Compound 241] | –
30 | – | – | 7.18 | 5.67 | Cc1ncccc1OCC1CCc2cc(-n3c(-c4cccnc4N)nc4ccc(-n5cccn5)nc43)ccc21 (single isomer, unassigned) [Compound 253, (*)-3-(3-(1-(((2-methylpyridin-3-yl)oxy)methyl)-2,3-dihydro-1H-inden-5-yl)-5-(1H-pyrazol-1-yl)-3H-imidazo[4,5-b]pyridin-2-yl)pyridin-2-amine] | –
31 | – | – | 7.74 | 6.97 | Cc1cc(C(=O)N[C@H]2CCc3cc(-n4c(-c5cccnc5N)nc5ccc(-n6cccn6)nc54)ccc32)c(C)nc1C [Compound 150] | –
32 | – | – | 8.09 | 7.67 | COc1cc(F)cc(C(=O)N[C@H]2CCc3cc(-n4c(-c5cccnc5N)nc5ccc(-n6cccn6)nc54)ccc32)c1 [Compound 334] | –
33 | – | – | 8.32 | 7.33 | Nc1ncccc1-c1nc2ccc(-n3cccn3)nc2n1-c1ccc2c(c1)CC[C@@H]2NC(=O)c1cc(F)c2[nH]ncc2c1 [Compound 261] | –
34 | – | – | 7.42 | 6.50 | Nc1ncccc1-c1nc2ccc(-n3cccn3)nc2n1-c1ccc2c(c1)CC[C@@H]2NC(=O)c1ccnc(C#Cc2ccccc2)c1 [Compound 209] | –
35 | – | – | 7.60 | 6.86 | Cc1ncc(C(=O)N[C@H]2CCc3cc(-n4c(-c5cccnc5N)nc5ccc(-n6cccn6)nc54)ccc32)cn1 [Compound 143] | –
36 | – | – | 7.33 | 6.37 | CCc1ncccc1C(=O)N[C@H]1CCc2cc(-n3c(-c4cccnc4N)nc4ccc(-n5cccn5)nc43)ccc21 [Compound 86] | –
37 | – | – | 7.02 | 5.72 | Nc1ncccc1-c1nc2ccc(-n3cccn3)nc2n1-c1ccc2c(c1)CC[C@@H]2NC(=O)c1cccn2ccnc12 [Compound 161] | –
38 | – | – | 8.27 | 6.99 | Cc1ncncc1C(=O)N[C@H]1CCc2cc(-n3c(-c4cccnc4N)nc4ccc(-n5cccn5)nc43)ccc21 [Compound 117] | –
39 | – | – | 8.03 | 7.27 | CCc1cc(C(=O)N[C@H]2CCc3cc(-n4c(-c5cccnc5N)nc5ccc(-n6cccn6)nc54)ccc32)ccn1 [Compound 204] | –
40 | – | – | 8.03 | 7.40 | Nc1ncccc1-c1nc2ccc(-n3cccn3)nc2n1-c1ccc2c(c1)CC[C@@H]2NC(=O)c1ccc2c(c1)CC(=O)N2 [Compound 194] | –
41 | – | – | 7.90 | 6.90 | Nc1ncccc1-c1nc2ccc(-n3cccn3)nc2n1-c1ccc2c(c1)CC[C@@H]2NC(=O)c1cccnc1F [Compound 127] | –
42 | – | – | < 6.00 | < 5.00 | Nc1ncccc1-c1nc2ccc(-n3cccn3)nc2n1-c1ccc2c(c1)CC[C@@H]2NC(=O)[C@H]1CCO1 [Compound 372] | –
43 | – | – | 8.12 | 7.16 | Cc1cc(C(=O)N[C@H]2CCc3cc(-n4c(-c5cccnc5N)nc5ccc(-n6cccn6)nc54)ccc32)sn1 [Compound 375] | –
44 | – | – | 7.71 | 6.88 | Cc1ncccc1C(=O)N[C@@H]1c2ccc(-n3c(-c4cccnc4N)nc4ccc(-n5cccn5)nc43)cc2CC1F (stereo partly shown) [Compound 147] | –
45 | – | – | 7.88 | 6.70 | Cc1ncccc1C(=O)N[C@H]1CCc2cc(-n3c(-c4cccnc4N)nc4c(C#N)cc(-n5cccn5)nc43)ccc21 [Compound 125] | –
46 | – | – | 8.13 | 7.73 | Nc1ncccc1-c1nc2ccc(-n3cccn3)nc2n1-c1ccc2c(c1)CC[C@@H]2NC(=O)c1cnc2c(c1)CCC2 [Compound 94] | –
47 | – | – | 8.04 | 6.99 | Nc1ncccc1-c1nc2ccc(-n3cccn3)nc2n1-c1ccc2c(c1)CC[C@@H]2NC(=O)c1cnc(C(F)F)nc1 [Compound 114] | –
